Data as given in ChEMBL document CHEMBL5380830, “Development and Therapeutic Implications of Tyrosine Kinase 2 Inhibitors” (J Med Chem, 2023).
Blank lines part the entries; values can stand above or below the molecule they belong to.

Tests used:
[1] = target: T1, JAK2/TYK2 (Homo sapiens, UniProt O60674+P29597); experiment: Inhibition of JAK2/TYK2 signal transduction pathway in human NK92 cells assessed as IL-12 induced STAT4 phosphorylation; assay type: cell-based
[2] = target: T2, Non-receptor tyrosine-protein kinase TYK2 (Homo sapiens, UniProt P29597); experiment: Inhibition of TYK2 signal transduction pathway in human TF-1 cells assessed as reduction in GM-CSF induced p-STAT5 level; assay type: cell-based
T2 sequence (P29597 whole entry): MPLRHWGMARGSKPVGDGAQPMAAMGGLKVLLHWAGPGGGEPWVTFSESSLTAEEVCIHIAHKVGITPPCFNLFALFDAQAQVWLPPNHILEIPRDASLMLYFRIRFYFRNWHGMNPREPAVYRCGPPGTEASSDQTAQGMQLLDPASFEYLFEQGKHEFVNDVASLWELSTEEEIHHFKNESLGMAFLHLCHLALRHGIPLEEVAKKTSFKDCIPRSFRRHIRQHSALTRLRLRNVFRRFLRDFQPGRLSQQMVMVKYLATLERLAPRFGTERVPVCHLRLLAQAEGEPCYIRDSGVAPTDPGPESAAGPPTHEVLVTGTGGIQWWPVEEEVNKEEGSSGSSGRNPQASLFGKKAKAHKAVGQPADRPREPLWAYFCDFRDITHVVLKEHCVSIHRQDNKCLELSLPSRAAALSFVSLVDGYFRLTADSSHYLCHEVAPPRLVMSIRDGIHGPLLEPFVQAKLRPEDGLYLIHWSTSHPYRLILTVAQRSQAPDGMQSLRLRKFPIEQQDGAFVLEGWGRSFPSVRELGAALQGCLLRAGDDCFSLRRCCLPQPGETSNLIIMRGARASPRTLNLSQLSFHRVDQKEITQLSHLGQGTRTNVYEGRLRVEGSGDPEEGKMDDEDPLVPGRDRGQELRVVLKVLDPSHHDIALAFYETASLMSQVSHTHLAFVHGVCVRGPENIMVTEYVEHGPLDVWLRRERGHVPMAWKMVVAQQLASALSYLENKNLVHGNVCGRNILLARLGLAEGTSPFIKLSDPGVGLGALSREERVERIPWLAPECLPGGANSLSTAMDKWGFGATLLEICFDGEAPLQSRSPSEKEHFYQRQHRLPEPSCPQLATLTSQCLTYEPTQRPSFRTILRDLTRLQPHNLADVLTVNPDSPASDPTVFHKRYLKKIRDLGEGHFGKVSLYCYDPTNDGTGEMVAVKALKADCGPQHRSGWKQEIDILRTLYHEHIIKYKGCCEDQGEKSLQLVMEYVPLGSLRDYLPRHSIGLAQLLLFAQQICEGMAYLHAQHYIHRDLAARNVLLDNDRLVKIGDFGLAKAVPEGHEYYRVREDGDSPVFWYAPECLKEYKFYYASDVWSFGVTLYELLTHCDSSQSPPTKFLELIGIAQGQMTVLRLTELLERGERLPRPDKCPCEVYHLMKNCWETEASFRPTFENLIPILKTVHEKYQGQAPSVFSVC

[3] = Half life in mouse at 10 mg/kg, po measured upto 24 hrs by LC-MS/MS analysis; assay type: ADME, organism-based; conditions: in vivo
[4] = Cmax in mouse at 10 mg/kg, po measured upto 24 hrs by LC-MS/MS analysis; assay type: ADME, organism-based; parameters: time < 24 hrs, dose 10 mg/kg, route po; conditions: in vivo
[5] = AUClast in mouse at 10 mg/kg, po measured upto 24 hrs by LC-MS/MS analysis; assay type: ADME, organism-based; parameters: dose 10 mg/kg, time < 24 hrs, route po; conditions: in vivo
[6] = Inhibition of IFNalpha induced STAT phosphorylation in human whole blood by fluorescence based analysis; assay type: tissue-based
[7] = target: T3, Tyrosine-protein kinase JAK1 (Homo sapiens, UniProt P23458); experiment: Binding affinity to JAK1 JH2 (unknown origin)
T3 sequence (P23458 whole entry): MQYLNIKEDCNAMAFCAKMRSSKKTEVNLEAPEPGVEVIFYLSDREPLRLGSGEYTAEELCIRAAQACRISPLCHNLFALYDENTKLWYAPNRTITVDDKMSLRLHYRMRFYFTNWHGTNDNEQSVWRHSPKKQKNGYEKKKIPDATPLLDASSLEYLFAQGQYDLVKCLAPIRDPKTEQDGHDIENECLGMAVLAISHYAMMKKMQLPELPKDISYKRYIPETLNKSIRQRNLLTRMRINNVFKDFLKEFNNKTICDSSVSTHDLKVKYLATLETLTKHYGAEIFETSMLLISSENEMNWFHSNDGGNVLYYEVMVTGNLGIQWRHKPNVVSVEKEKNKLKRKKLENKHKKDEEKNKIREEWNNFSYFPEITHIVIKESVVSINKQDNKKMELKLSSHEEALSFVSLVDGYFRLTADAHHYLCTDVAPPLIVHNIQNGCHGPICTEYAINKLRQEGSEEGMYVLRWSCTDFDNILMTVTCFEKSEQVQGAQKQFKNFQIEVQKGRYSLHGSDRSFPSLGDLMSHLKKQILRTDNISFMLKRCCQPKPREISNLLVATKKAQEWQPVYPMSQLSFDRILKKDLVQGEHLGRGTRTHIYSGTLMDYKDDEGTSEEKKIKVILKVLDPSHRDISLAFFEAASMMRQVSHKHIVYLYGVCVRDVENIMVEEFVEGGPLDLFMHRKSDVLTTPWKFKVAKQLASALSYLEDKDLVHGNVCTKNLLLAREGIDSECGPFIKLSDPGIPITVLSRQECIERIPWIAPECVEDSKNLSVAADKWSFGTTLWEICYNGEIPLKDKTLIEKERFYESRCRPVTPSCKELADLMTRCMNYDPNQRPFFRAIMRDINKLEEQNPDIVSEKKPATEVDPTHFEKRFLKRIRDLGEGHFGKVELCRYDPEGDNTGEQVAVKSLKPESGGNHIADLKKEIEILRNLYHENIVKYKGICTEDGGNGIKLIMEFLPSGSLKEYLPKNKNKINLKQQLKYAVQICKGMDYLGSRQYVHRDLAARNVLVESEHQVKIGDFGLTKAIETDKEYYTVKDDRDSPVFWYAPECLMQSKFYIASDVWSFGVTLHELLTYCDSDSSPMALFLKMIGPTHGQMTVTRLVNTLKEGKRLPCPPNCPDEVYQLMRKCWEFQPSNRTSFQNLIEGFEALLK

[8] = target: T2, Non-receptor tyrosine-protein kinase TYK2; experiment: Binding affinity to TYK2 JH2 (unknown origin)
[9] = target: T4, Tyrosine-protein kinase JAK2 (Homo sapiens, UniProt O60674); experiment: Binding affinity to JAK2 JH1 (unknown origin)
T4 sequence (O60674 whole entry): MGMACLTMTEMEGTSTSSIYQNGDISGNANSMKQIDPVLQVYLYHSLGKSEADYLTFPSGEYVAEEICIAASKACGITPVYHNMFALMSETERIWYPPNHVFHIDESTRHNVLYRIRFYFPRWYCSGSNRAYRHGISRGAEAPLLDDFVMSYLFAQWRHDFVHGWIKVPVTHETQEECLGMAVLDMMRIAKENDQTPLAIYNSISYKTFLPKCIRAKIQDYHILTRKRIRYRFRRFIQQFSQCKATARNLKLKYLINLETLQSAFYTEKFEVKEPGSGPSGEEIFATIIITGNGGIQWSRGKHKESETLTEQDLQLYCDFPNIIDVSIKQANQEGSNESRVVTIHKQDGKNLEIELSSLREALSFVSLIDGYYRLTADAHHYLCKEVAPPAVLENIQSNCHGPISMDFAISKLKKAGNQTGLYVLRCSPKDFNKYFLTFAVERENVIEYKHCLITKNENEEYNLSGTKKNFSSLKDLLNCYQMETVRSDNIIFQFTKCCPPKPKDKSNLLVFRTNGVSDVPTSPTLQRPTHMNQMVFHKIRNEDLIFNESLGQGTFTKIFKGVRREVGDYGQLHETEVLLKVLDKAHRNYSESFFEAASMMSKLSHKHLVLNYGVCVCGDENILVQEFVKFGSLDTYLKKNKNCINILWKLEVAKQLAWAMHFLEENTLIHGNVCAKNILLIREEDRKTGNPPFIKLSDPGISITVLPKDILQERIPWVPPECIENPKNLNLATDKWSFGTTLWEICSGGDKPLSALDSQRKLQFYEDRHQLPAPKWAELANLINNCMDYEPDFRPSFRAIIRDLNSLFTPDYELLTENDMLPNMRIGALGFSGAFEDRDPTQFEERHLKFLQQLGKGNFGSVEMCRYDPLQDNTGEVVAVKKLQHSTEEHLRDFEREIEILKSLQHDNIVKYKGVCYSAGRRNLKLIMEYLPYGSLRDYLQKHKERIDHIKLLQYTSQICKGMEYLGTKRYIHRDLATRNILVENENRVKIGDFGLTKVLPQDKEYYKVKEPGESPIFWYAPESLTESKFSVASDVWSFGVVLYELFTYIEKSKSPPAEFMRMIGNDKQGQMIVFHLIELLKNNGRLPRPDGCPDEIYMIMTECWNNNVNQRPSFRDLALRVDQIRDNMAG

[10] = target: T2, Non-receptor tyrosine-protein kinase TYK2; experiment: Inhibition of TYK2 signal transduction pathway in human PBMC cells assessed as IFNalpha induced p-STAT5 level; assay type: cell-based
[11] = target: T2, Non-receptor tyrosine-protein kinase TYK2; experiment: Inhibition of TYK2 signal transduction pathway in human PBMC cells assessed as reduction in GM-CSF induced p-STAT5 level; assay type: cell-based
[12] = target: T2, Non-receptor tyrosine-protein kinase TYK2; experiment: Inhibition of TYK2 signal transduction pathway in human PBMC cells assessed as IL-2 induced p-STAT5 level; assay type: cell-based
[13] = Inhibition of IL-23 induced STAT phosphorylation in HEK293 cells by Western blotting analysis; assay type: cell-based; conditions: Homo sapiens
[14] = Inhibition of IFNalpha induced STAT phosphorylation in HEK293 cells by Western blotting analysis; assay type: cell-based; conditions: Homo sapiens
[15] = target: T3, Tyrosine-protein kinase JAK1; experiment: Inhibition of human recombinant JAK1 preincubated for 15 mins followed by substrate addition measured after 60 mins by HTRF assay
[16] = target: T4, Tyrosine-protein kinase JAK2; experiment: Inhibition of human recombinant JAK2 preincubated for 15 mins followed by substrate addition measured after 60 mins by HTRF assay
[17] = target: T5, Tyrosine-protein kinase JAK3 (Homo sapiens, UniProt P52333); experiment: Inhibition of human recombinant JAK3 preincubated for 15 mins followed by substrate addition measured after 60 mins by HTRF assay
T5 sequence (P52333 whole entry): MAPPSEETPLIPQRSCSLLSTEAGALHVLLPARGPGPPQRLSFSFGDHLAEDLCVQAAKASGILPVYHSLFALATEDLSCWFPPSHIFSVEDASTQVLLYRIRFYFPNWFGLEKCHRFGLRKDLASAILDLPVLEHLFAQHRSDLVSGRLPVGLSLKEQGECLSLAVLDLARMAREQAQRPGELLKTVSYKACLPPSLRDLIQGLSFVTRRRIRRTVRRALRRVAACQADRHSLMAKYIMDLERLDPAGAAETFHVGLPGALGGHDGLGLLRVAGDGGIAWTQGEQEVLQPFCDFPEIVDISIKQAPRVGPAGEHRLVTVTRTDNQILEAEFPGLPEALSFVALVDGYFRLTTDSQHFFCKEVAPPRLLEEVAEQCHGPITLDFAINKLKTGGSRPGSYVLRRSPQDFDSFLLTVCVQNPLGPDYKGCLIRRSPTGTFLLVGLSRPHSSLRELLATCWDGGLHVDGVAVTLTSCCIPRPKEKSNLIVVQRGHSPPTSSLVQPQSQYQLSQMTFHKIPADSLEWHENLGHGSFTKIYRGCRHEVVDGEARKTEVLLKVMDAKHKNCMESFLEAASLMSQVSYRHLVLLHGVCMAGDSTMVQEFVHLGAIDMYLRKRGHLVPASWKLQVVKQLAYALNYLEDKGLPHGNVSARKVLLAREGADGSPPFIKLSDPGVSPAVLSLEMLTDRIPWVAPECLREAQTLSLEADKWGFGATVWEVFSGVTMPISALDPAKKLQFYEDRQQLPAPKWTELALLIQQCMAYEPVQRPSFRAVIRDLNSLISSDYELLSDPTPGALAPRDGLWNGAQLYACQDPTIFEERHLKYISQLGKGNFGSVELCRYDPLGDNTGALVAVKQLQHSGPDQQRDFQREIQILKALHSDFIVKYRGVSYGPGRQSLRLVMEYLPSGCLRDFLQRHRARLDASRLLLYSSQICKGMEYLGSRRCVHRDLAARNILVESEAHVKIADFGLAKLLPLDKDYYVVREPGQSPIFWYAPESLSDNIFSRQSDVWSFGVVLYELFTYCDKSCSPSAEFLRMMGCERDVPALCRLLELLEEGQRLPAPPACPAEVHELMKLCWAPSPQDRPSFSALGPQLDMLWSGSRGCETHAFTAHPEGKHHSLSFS

[18] = target: T2, Non-receptor tyrosine-protein kinase TYK2; experiment: Inhibition of human recombinant TYK2 preincubated for 15 mins followed by substrate addition measured after 60 mins by HTRF assay
[19] = target: T1, JAK2/TYK2; experiment: Inhibition of JAK2/TYK2 signal transduction pathway in human NK92 cells assessed as […] induced IFNgamma expression incubated for 24 hrs by ELISA assay; assay type: cell-based
[20] = target: T5, Tyrosine-protein kinase JAK3; experiment: Inhibition of JAK3 (unknown origin) using ULight - JAK (Tyr1023) substrate incubated for 60 mins in presence of ATP by envision plate reader based analysis
[21] = target: T2, Non-receptor tyrosine-protein kinase TYK2; experiment: Inhibition of TYK2 JH2 (unknown origin) by scintillation proximity assay
[22] = target: T2, Non-receptor tyrosine-protein kinase TYK2; experiment: Inhibition of TYK2 JH2 in human TF-1 cells assessed as reduction of IFNalpha induced STAT1 phosphorylation; assay type: cell-based
[23] = target: T2, Non-receptor tyrosine-protein kinase TYK2; experiment: Binding affinity to human wild-type partial length TYK2 JH2 (G556 to D888 residues) expressed in mammalian expression system by KINOMEscan assay
[24] = target: T2, Non-receptor tyrosine-protein kinase TYK2; experiment: Inhibition of TYK2 JH2 in human KIT225 cells assessed as reduction of IFNalpha induced STAT1 phosphorylation by AlphaLISA assay; assay type: cell-based

T1 sequence (O60674 whole entry): as the sequence (O60674 whole entry) above
T1 sequence (P29597 whole entry): as the sequence (P29597 whole entry) above

IC50 [1]: 1 nM
IC50 [2]: > 10000 nM
half-life [3]: 2.07 h
Cmax [4]: 0.00873 µg/mL
AUC(0-t) at 24 h [5]: 0.0193 µg·h/mL
SMILES: COc1cc(Nc2cc(NC(C)=O)ncc2-c2ccc(C(C)(C)O)cn2)nc(S(C)(=O)=O)c1

IC50 [6]: 9 nM
SMILES: [2H]C([2H])([2H])NC(=O)c1cnc(Nc2cc(C3CC3)ncn2)cc1Nc1ncccc1S(C)(=O)=O

Kd [7]: ≤ 100 nM
Kd [8]: ≤ 10 nM
Kd [9]: > 10000 nM
IC50 [10]: < 100 nM
IC50 [11]: ≤ 1000 nM
IC50 [12]: ≤ 100 nM
SMILES: [2H]C([2H])([2H])CC(=O)c1cnc(Nc2cccc(C#N)n2)cc1Nc1cccc(-c2ncn(C([2H])([2H])[2H])n2)c1OC

Kd [7]: ≤ 100 nM
Kd [8]: ≤ 10 nM
Kd [9]: > 10000 nM
IC50 [10]: < 100 nM
IC50 [11]: ≤ 1000 nM
IC50 [12]: ≤ 100 nM
SMILES: [2H]C([2H])([2H])CC(=O)c1cnc(Nc2cccc(C#N)n2)cc1Nc1nccc(-c2ncn(C([2H])([2H])[2H])n2)c1OC

IC50 [13]: < 30 nM
IC50 [14]: < 30 nM
SMILES: [2H]C([2H])([2H])NC(=O)c1nnc(NC(=O)C2CC2)cc1Nc1cccc2c1N(C)Cc1cccnc1-2

IC50 [1]: 0.053 nM
IC50 [2]: 1820 nM
half-life [3]: 3.01 h
Cmax [4]: 2.82 µg/mL
AUC(0-t) at 24 h [5]: 16.2 µg·h/mL
SMILES: COc1cc(Nc2cc(NC(C)=O)ncc2-c2ccc3c(n2)OCC(C)(C)O3)nc(S(C)(=O)=O)c1

IC50 [15]: 38 nM
IC50 [16]: 4 nM
IC50 [17]: 1 nM
IC50 [18]: < 0.06 nM
IC50 [19]: 0.08 nM
SMILES: NC(=O)c1nnc(-c2c(F)cccc2F)cc1Nc1ccc(N2CCOCC2)cn1

IC50 [20]: > 5000 nM
SMILES: Cn1cc(-c2cn3ncnc3c(-c3ccn([C@]4(CC#N)C[C@H](C#N)C4)c3)n2)cn1

IC50 [6]: 40 nM
SMILES: [2H]C([2H])([2H])NC(=O)c1nnc(NC(=O)C2CC2)cc1Nc1cccc(-c2ncc(C(=O)N3CCN(C4CCCC4)CC3)s2)c1OC

IC50 [21]: < 254 nM
IC50 [22]: 112 nM
SMILES: CNc1cc(Nc2cccn(-c3ccccn3)c2=O)nc2c(C(=O)N[C@@H]3CCN(C)C3=O)cnn12

IC50 [6]: 30 nM
SMILES: [2H]C([2H])([2H])NC(=O)c1nnc(NC(=O)C2CC2)cc1Nc1cccc(-c2nc(CN3CCN(S(C)(=O)=O)CC3)no2)c1OC

Kd [23]: 0.028 nM
IC50 [24]: 54 nM
SMILES: CNC(=O)c1nnc(NC(=O)N2CCC2)cc1Nc1cccc(-c2ncn(C)n2)c1OC

IC50 [6]: 6 nM
SMILES: [2H]C([2H])([2H])NC(=O)c1nnc(Nc2ccc(C(C)(C)O)cn2)cc1Nc1nc(C)ccc1S(C)(=O)=O

IC50 [1]: 1.82 nM
IC50 [2]: > 10000 nM
half-life [3]: 1.48 h
Cmax [4]: 0.911 µg/mL
AUC(0-t) at 24 h [5]: 2.1 µg·h/mL
SMILES: COc1cc(Nc2cc(NC(C)=O)ncc2-c2ccc(F)cn2)nc(S(C)(=O)=O)c1

IC50 [13]: < 30 nM
IC50 [14]: < 30 nM
SMILES: [2H]C([2H])([2H])NC(=O)c1nnc(NC(=O)C2CC2)cc1Nc1cccc2c1N(C)Cc1nc(C)nn1-2

IC50 [6]: 30 nM
SMILES: [2H]C([2H])([2H])NC(=O)c1nnc(NC(=O)C2CC2)cc1Nc1cccc(-c2noc(CN3CCN(S(C)(=O)=O)CC3)n2)c1OC

IC50 [21]: < 254 nM
IC50 [22]: 7 nM
SMILES: CNc1cc(Nc2cccc3c2OCCC3)nc2c(C(=O)N[C@@H]3CCN(C)C3=O)cnn12

Kd [7]: 430 nM
Kd [8]: 0.002 nM
Kd [9]: 7300 nM
IC50 [10]: 1.2 nM
IC50 [12]: > 10000 nM
SMILES: CNc1cc2nn3c(cnc13)C(=O)N[C@H](C)COCc1ccc(OC)c(c1)N2
